Laboratory results: PubChem BioAssay AID1259407 (Chemical Carcinogenesis Research Information System (CCRIS), 2018)
Activity calls are given as the source filed them. No rule for the calls is given here.

Test system: CCRIS mutagenicity, Ames/micronucleus/aberration tests
Assay: CCRIS mutagenicity studies
[1] = Test System: AMES SALMONELLA TYPHIMURIUM, Strain/Indicator: TA98, Metabolic Activation: NONE, Method: STANDARD PLATE
[2] = Test System: AMES SALMONELLA TYPHIMURIUM, Strain/Indicator: TA100, Metabolic Activation: NONE, Method: STANDARD PLATE
[3] = Test System: AMES SALMONELLA TYPHIMURIUM, Strain/Indicator: TA100, Metabolic Activation: RAT, LIVER, S-9, PHENOBARBITAL, Method: STANDARD PLATE
[4] = Test System: AMES SALMONELLA TYPHIMURIUM, Strain/Indicator: TA98, Metabolic Activation: NONE, Method: PREINCUBATION
[5] = Test System: AMES SALMONELLA TYPHIMURIUM, Strain/Indicator: TA100, Metabolic Activation: NONE, Method: PREINCUBATION
[6] = Test System: AMES SALMONELLA TYPHIMURIUM, Strain/Indicator: TA102, Metabolic Activation: NONE, Method: PREINCUBATION

What does the source list for N=C(N)c1cc2ccc(Br)cc2[nH]1?
mutagenic call [1]: inactive; negative; mutagenic call (Test System: AMES SALMONELLA TYPHIMURIUM, Strain/Indicator: TA98, Metabolic Activation: RAT, LIVER, S-9, PHENOBARBITAL, Method: STANDARD PLATE): inactive; negative; mutagenic call [2]: inactive; negative; mutagenic call [3]: inactive; negative

For Fc1cc(F)c2ncccc2c1F, which mutagenic call (Test System: AMES SALMONELLA TYPHIMURIUM, Strain/Indicator: TA100, Metabolic Activation: RAT LIVER S-9, PHENOBARBITAL AND 5,6-BENZOFLAVONE, Method: PREINCUBATION) is on record?
Its mutagenic call is “active; positive”.

Which mutagenic call (Test System: E. COLI WP2, Strain/Indicator: WP2, Metabolic Activation: NONE, Method: STANDARD PLATE) does the source give for CC(C)c1ccccc1OC(=O)N(C)N=O here?
Its mutagenic call is “active; positive”.

Which mutagenic call (End Point: In vitro micronucleus, Test System: Chinese Hamster Ovary (CHO-WBL) cells, Metabolic Activation: None) does the source give for CC(C)Cl here?
The mutagenic call was “inactive; negative”.

And the mutagenic call (Test System: AMES SALMONELLA TYPHIMURIUM, Strain/Indicator: TA100, Metabolic Activation: NONE, Method: DESICCATOR)?
Its mutagenic call is “active; positive”.

What about the mutagenic call (Test System: AMES SALMONELLA TYPHIMURIUM, Strain/Indicator: TA100, Metabolic Activation: RAT, LIVER, S-9, AROCLOR 1254, Method: DESICCATOR) of the same compound?
The mutagenic call was “active; positive”.

Which results are given for O=c1cccccc1O?
mutagenic call (Test System: MOUSE LYMPHOMA, Strain/Indicator: L5178Y (TK+/TK-), Metabolic Activation: NONE, Method: SUSPENSION/PLATE): active; positive. reevaluation of results: positive; mutagenic call (Test System: MOUSE LYMPHOMA, Strain/Indicator: L5178Y (TK+/TK-), Metabolic Activation: RAT, LIVER, S-9, AROCLOR 1254, Method: SUSPENSION/PLATE): inactive; positive. reevaluation of results: negative

With CC(=O)C(C)=O as the compound, how does the mutagenic call [4] read?
Its mutagenic call is “inactive; negative”.

And the mutagenic call (Test System: AMES SALMONELLA TYPHIMURIUM, Strain/Indicator: TA98, Metabolic Activation: RAT, LIVER, S-9, AROCLOR 1254, Method: PREINCUBATION)?
Its mutagenic call is “inactive; negative”.

And the mutagenic call [5]?
The mutagenic call was “inactive; negative”.

And the mutagenic call [2]?
Its mutagenic call is “active; positive”.

And the mutagenic call (Test System: AMES SALMONELLA TYPHIMURIUM, Strain/Indicator: TA100, Metabolic Activation: RAT, LIVER, S-9, AROCLOR 1254, Method: PREINCUBATION)?
Its mutagenic call is “inactive; negative”.

And the mutagenic call [3]?
Its mutagenic call is “active; positive”.

And the mutagenic call [6]?
The mutagenic call was “active; positive”.

What about the mutagenic call (Test System: AMES SALMONELLA TYPHIMURIUM, Strain/Indicator: TA102, Metabolic Activation: RAT, LIVER, S-9, AROCLOR 1254, Method: PREINCUBATION) of the same compound?
The mutagenic call was “active; positive”.

What about the mutagenic call (Test System: AMES SALMONELLA TYPHIMURIUM, Strain/Indicator: TA104, Metabolic Activation: NONE, Method: PREINCUBATION) of the same compound?
Its mutagenic call is “active; positive”.

What about the mutagenic call (Test System: AMES SALMONELLA TYPHIMURIUM, Strain/Indicator: TA1535, Metabolic Activation: NONE, Method: PREINCUBATION) of the same compound?
Its mutagenic call is “inactive; negative”.

And the mutagenic call (Test System: AMES SALMONELLA TYPHIMURIUM, Strain/Indicator: TA1537, Metabolic Activation: NONE, Method: PREINCUBATION)?
Its mutagenic call is “inactive; negative”.

And the mutagenic call (Test System: AMES SALMONELLA TYPHIMURIUM, Strain/Indicator: TA1538, Metabolic Activation: NONE, Method: PREINCUBATION)?
Its mutagenic call is “inactive; negative”.

And the mutagenic call (Test System: E. COLI, Strain/Indicator: WP2 UVRA, Metabolic Activation: NONE, Method: PREINCUBATION)?
The mutagenic call was “inactive; negative”.

Which mutagenic call (Test System: AMES SALMONELLA TYPHIMURIUM, Strain/Indicator: TA97, Metabolic Activation: NONE, Method: PREINCUBATION) does the source give for CC(=O)Nc1ccc(/C=N/n2nnc3c([nH]c4ccccc43)c2=O)cc1 here?
The mutagenic call was “active; positive”.

And the mutagenic call (Test System: AMES SALMONELLA TYPHIMURIUM, Strain/Indicator: TA97, Metabolic Activation: RAT, LIVER, S-9, AROCLOR 1254 (10%), Method: PREINCUBATION)?
Its mutagenic call is “active; positive”.

What about the mutagenic call [4] of the same compound?
Its mutagenic call is “active; positive”.

And the mutagenic call (Test System: AMES SALMONELLA TYPHIMURIUM, Strain/Indicator: TA98, Metabolic Activation: RAT, LIVER, S-9, AROCLOR 1254 (10%), Method: PREINCUBATION)?
Its mutagenic call is “active; positive”.

And the mutagenic call [5]?
Its mutagenic call is “active; positive”.

And the mutagenic call (Test System: AMES SALMONELLA TYPHIMURIUM, Strain/Indicator: TA100, Metabolic Activation: RAT, LIVER, S-9, AROCLOR 1254 (10%), Method: PREINCUBATION)?
Its mutagenic call is “active; positive”.

What about the mutagenic call [6] of the same compound?
The mutagenic call was “inactive; negative”.

What about the mutagenic call (Test System: AMES SALMONELLA TYPHIMURIUM, Strain/Indicator: TA102, Metabolic Activation: RAT, LIVER, S-9, AROCLOR 1254 (10%), Method: PREINCUBATION) of the same compound?
Its mutagenic call is “inactive; negative”.

Which mutagenic call (Test System: AMES SALMONELLA TYPHIMURIUM, Strain/Indicator: TA100, Metabolic Activation: NONE, Method: FLUCTUATION TEST) does the source give for CN(C)c1ccc(N=O)cc1 here?
The mutagenic call was “active; positive”.

O=C(CCNNC(=O)c1ccncc1)NCc1ccccc1 was tested. Which mutagenic call [1] did it give?
The mutagenic call was “inactive; negative”.

What about the mutagenic call (Test System: AMES SALMONELLA TYPHIMURIUM, Strain/Indicator: TA98, Metabolic Activation: RAT, LIVER, S-9, AROCLOR 1254, Method: STANDARD PLATE) of the same compound?
Its mutagenic call is “inactive; negative”.

What about the mutagenic call [2] of the same compound?
The mutagenic call was “active; positive”.

And the mutagenic call (Test System: AMES SALMONELLA TYPHIMURIUM, Strain/Indicator: TA100, Metabolic Activation: RAT, LIVER, S-9, AROCLOR 1254, Method: STANDARD PLATE)?
The mutagenic call was “active; positive”.

And the mutagenic call (Test System: AMES SALMONELLA TYPHIMURIUM, Strain/Indicator: TA1535, Metabolic Activation: NONE, Method: STANDARD PLATE)?
The mutagenic call was “active; positive”.

What about the mutagenic call (Test System: AMES SALMONELLA TYPHIMURIUM, Strain/Indicator: TA1535, Metabolic Activation: RAT, LIVER, S-9, AROCLOR 1254, Method: STANDARD PLATE) of the same compound?
Its mutagenic call is “active; positive”.

And the mutagenic call (Test System: AMES SALMONELLA TYPHIMURIUM, Strain/Indicator: TA1537, Metabolic Activation: NONE, Method: STANDARD PLATE)?
Its mutagenic call is “inactive; negative”.

And the mutagenic call (Test System: AMES SALMONELLA TYPHIMURIUM, Strain/Indicator: TA1537, Metabolic Activation: RAT, LIVER, S-9, AROCLOR 1254, Method: STANDARD PLATE)?
The mutagenic call was “inactive; negative”.
